Counter-ions that a name gives are not always drawn. Blank lines part the entries; values can stand above or below the compound they belong to.
Assays:
[1] = target: T1, hemoglobin in stool samples (Homo sapiens, UniProt P68871+P69905); test: 3-Day shipping simulation, hemoglobin % recovery by ELISA; parameters: from tissue; host or cells: stool samples; conditions: for Notes (Hb stability vs Hb Collection Buffer): additive concentrations as in the 8th table;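 on all read-outs here: stool samples put through shipping stress in a thermal cycler, hemoglobin quantified by ELISA before and after, stability given as post-stress % of the pre-stress level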
[2] = target: T1, hemoglobin in stool samples; test: Accelerated shipping simulation (35C 16 hour challenge), hemoglobin % recovery by ELISA; parameters: from tissue; host or cells: stool samples;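 further: stool hemoglobin measured by ELISA before and after thermal-cycler shipping stress, stability given as percent of pre-stress hemoglobin recovered afterwards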
[3] = additive concentration 0.00005%

T1 sequence (P69905 2-142 limits assumed): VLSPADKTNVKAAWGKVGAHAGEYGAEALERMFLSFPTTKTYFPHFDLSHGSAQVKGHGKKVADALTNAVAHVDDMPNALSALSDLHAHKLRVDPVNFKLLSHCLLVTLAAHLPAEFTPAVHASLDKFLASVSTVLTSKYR
T1 sequence (P68871 2-147 limits assumed): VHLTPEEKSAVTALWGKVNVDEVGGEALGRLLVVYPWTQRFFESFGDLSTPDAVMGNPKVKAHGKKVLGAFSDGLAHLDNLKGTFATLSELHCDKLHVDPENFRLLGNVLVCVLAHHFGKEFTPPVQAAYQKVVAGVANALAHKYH

Compound: Cc1c(C)c2c(c(C)c1O)CCC(C)(CCCC(C)CCCC(C)CCCC(C)C)O2 (stereo not shown) [Tocopherol]
Results ([1]; Additive Concentration 0.10%): No improvement
Results ([1]; Additive Concentration 1%): No improvement
Results ([1]; Additive Concentration 10%): No improvement

Compound: Cn1sccc1=O [Methylisothiazolone]
Results ([1]; Additive Concentration 0.0001%): No improvement
Results ([1]; Additive Concentration 0.0002%): No improvement
Results ([1]; Additive Concentration 0.0010%): No improvement
Results ([1]; Additive Concentration 0.0020%): No improvement
Results [1, 3]: No improvement

Compound: Oc1ccc(C=Cc2cc(O)cc(O)c2)cc1 [Resveratrol]
Results ([1]; Additive Concentration 10 mM): No improvement
Results ([1]; additive concentration 5 mM): No improvement
Results ([1]; additive concentration 20 mM): No improvement

Compound: C=O [Formaldehyde Solution]
Results ([1]; additive concentration 0.010%): No Improvement
Results ([1]; additive concentration 0.020%): No Improvement
Results ([1]; additive concentration 0.030%): No Improvement
Results ([1]; additive concentration 0.035%): No Improvement
Results ([1]; additive concentration 0.040%): No Improvement
Results ([1]; additive concentration 0.050%): No Improvement
Results ([1]; additive concentration 0.060%): No Improvement
Results ([1]; additive concentration 0.070%): No Improvement
Results ([1]; additive concentration 0.080%): No Improvement
Results ([1]; additive concentration 0.090%): No Improvement
Results ([1]; additive concentration 0.100%): No Improvement
Results ([1]; additive concentration […]): No Improvement

Compound: O=c1c(-c2ccc(O)cc2)coc2cc(O)ccc12 [Diadzein]
Results ([1]; Additive Concentration 60 mM): No improvement
Results ([1]; additive concentration 25 uM): No improvement
Results ([1]; additive concentration 50 uM): No improvement
Results ([1]; additive concentration 100 uM): No improvement
Results ([1]; additive concentration 40 mM): No improvement
Results ([1]; additive concentration 50 mM): No improvement

Compound: O=C(NCO)N(CO)C1(CO)C(=O)NC(=O)N1CO (stereo not shown) [Diazolidinyl Urea]
Results ([1]; additive concentration 10 mM): No Improvement
Results ([1]; additive concentration 25 mM): No Improvement
Results ([1]; additive concentration 50 mM): No Improvement
Results ([1]; additive concentration 75 mM): No Improvement
Results ([1]; additive concentration 100 mM): No Improvement
Results ([2]; additive concentration 10 uM): No Improvement
Results ([2]; additive concentration 100 uM): No Improvement
Results ([2]; additive concentration 1 mM): No Improvement
Results ([2]; additive concentration 10 mM): No Improvement

Compound: [Cl-].[Cl-].[Zn+2] [Zinc Chloride]
Results ([1]; additive concentration 1 mM): No Improvement
Results ([1]; additive concentration 10 mM): No Improvement
Results ([1]; additive concentration 25 mM): No Improvement

Compound: O=C([O-])CNCO.[Na+] [Soduim hyrdoxylmethyl glycinate]
Results ([1]; additive concentration 10 mM): No Improvement
Results ([1]; additive concentration 25 mM): No Improvement
Results ([1]; additive concentration 50 mM): No Improvement
Results ([1]; additive concentration 75 mM): No Improvement
Results ([1]; additive concentration 90 mM): No Improvement

Compound: O=c1c(O)c(-c2ccc(O)c(O)c2)oc2cc(O)cc(O)c12 [Quercetin]
Results ([1]; Additive Concentration 150 uM): No improvement
Results ([1]; Additive Concentration 300 uM): No improvement
Results ([1]; Additive Concentration 600 uM): No improvement
Results ([2]; additive concentration 0.6 uM): No Improvement
Results ([2]; additive concentration 6 uM): No Improvement
Results ([2]; additive concentration 60 uM): No Improvement

Compound: [Cl][Ni][Cl] [Nickel Chloride]
Results ([1]; additive concentration 1 mM): No Improvement
Results ([1]; additive concentration 10 mM): No Improvement
Results ([1]; additive concentration 25 mM): No Improvement

Compound: O=c1cc(-c2ccccc2)oc2c(O)c(O)ccc12 [7,8 dihydroxyflavone]
Results ([1]; additive concentration 0.5 mM): No improvement
Results ([1]; additive concentration 1 mM): No improvement

Compound: O=C1O[C@H]([C@@H](O)CO)C(O)=C1O [Ascorbic Acid]
Results ([1]; additive concentration 0.5 mM): No improvement
Results ([1]; additive concentration 1 mM): No improvement
Results ([1]; additive concentration 5 mM): No improvement
Results ([2]; additive concentration 0.2 uM): No Improvement
Results ([2]; additive concentration 5 uM): No Improvement
Results ([2]; additive concentration 10 uM): No Improvement
Results ([2]; additive concentration 100 uM): No Improvement
Results ([2]; additive concentration 10 mM): No Improvement
Results ([2]; additive concentration 25 mM): No Improvement
Results ([2]; additive concentration l uM): No Improvement

Compound: [Cl][Co][Cl] [Cobalt Chloride]
Results ([1]; additive concentration 0.001M): No Improvement
Results ([1]; additive concentration 0.01M): No Improvement
Results ([1]; additive concentration 0.05M): No Improvement

Compound: BSA (10 mM MOPS)
Results ([1]; Additive Concentration 1%): No Improvement

Compound: C=CC1=C(C)c2cc3[n-]c(cc4nc(cc5[n-]c(cc1n2)c(C)c5C=C)C(C)=C4CCC(=O)O)c(CCC(=O)O)c3C.[Cl-].[Fe+3] [Hemin (H2O:NaOH)]
Results [2, 3]: Improvement in % Hb
Results ([2]; additive concentration 0.00005%, pH 6.5): Improvement in % Hb
Results ([2]; additive concentration 0.00009%): Improvement in % Hb
Results ([2]; additive concentration 0.00009%, pH 6.5): Improvement in % Hb
Results ([2]; additive concentration 0.0003%): Improvement in % Hb
Results ([2]; additive concentration 0.003%): Improvement in % Hb
Results ([2]; additive concentration 0.003%, pH 6.5): Improvement in % Hb
Results ([2]; additive concentration […]): Improvement in % Hb
Results ([2]; additive concentration […], pH 6.5): Improvement in % Hb

Compound: O.O=c1cc(-c2ccccc2)oc2c(O)c(O)ccc12 [7,8 dihydroxyflavone hydrate]
Results ([2]; additive concentration 0.01 mM): No Improvement
Results ([2]; additive concentration 0.1 mM): No improvement
Results ([2]; additive concentration 1 mM): No Improvement

Compound: [F-].[Na+] [Sodium Fluoride]
Results ([2]; additive concentration 85 uM): No Improvement
Results ([2]; additive concentration 850 uM): No Improvement

Compound: CCC(=O)[O-].CCC(=O)[O-].[Ca+2] [Calcium Propionate]
Results ([1]; additive concentration 5 mM): Calcium cation shows
Results ([1]; additive concentration 10 mM): Calcium cation shows
Results ([1]; additive concentration 20 mM): Calcium cation shows
Results ([1]; additive concentration 30 mM): Calcium cation shows
Results ([1]; additive concentration 40 mM): Calcium cation shows
Results ([1]; additive concentration 50 mM): Calcium cation shows

Compound: Heparin
Results ([2]; additive concentration 25 uM): No Improvement
Results ([2]; additive concentration 250 uM): No Improvement

Compound: O=P(O)(O)CN(CP(=O)(O)O)CP(=O)(O)O [ATMP]
Results ([2]; additive concentration 0.02 mM): No Improvement
Results ([2]; additive concentration 0.2 mM): No Improvement
Results ([2]; additive concentration 2 mM): No Improvement

Compound: [Cl][Fe]([Cl])[Cl] [Iron (3) Chloride]
Results ([1]; additive concentration 1 mM): No Improvement
Results ([1]; additive concentration 5 mM): No Improvement
Results ([1]; additive concentration 10 mM): No Improvement

Compound: Dextran Sulphate
Results ([2]; Additive Concentration 1 uM): No Improvement
Results ([2]; additive concentration 0.2 uM): No Improvement
Results ([2]; additive concentration 2 uM): No Improvement
Results ([2]; additive concentration 0.5 mM): No Improvement

Compound: NO [Hydroxylamine]
Results ([2]; additive concentration 25 uM): No Improvement
Results ([2]; additive concentration 0.5 mM): No Improvement

Continued, values first:

Notes (Hb stability vs Hb Collection Buffer) [1]: Improved Hb
Results ([2]; additive concentration 0.0174 mM): No Improvement
Results ([2]; additive concentration 0.174 mM): No Improvement
Results ([2]; additive concentration 1.74 mM): No Improvement
Results ([2]; additive concentration 10 mM): No Improvement
Results ([2]; additive concentration 16.76 mM): No Improvement
Results ([2]; additive concentration 0.3M): Improvement
Compound: OC[C@H]1O[C@H](O[C@H]2O[C@H](CO)[C@@H](O)[C@H](O)[C@H]2O)[C@H](O)[C@@H](O)[C@@H]1O [Trehalose]

Results ([1]; additive concentration 0.5 mM): No improvement
Results ([1]; additive concentration 1 mM): No improvement
Results ([1]; additive concentration 2 mM): No improvement
Compound: Cc1ncc(CO)c(CO)c1O [Vitamine B6 in HCl]

Results ([1]; Additive Concentration 0.0002%): No improvement
Results ([1]; Additive Concentration 0.0010%): No improvement
Results ([1]; Additive Concentration 0.0020%): No improvement
Compound: O=[N+]([O-])C1(Br)COCOC1 [Bronidox]

Results ([1]; Additive Concentration 5%): No improvement
Results ([1]; Additive Concentration 10%): No improvement
Results ([1]; Additive Concentration 25%): No improvement
Compound: N.N.N.O=C(O)C1=CC(=C(c2ccc(O)c(C(=O)O)c2)c2ccc(O)c(C(=O)O)c2)C=CC1=O [aurintircarboxylic acid ammonium salt]

Results ([1]; additive concentration 1 mM): No Improvement
Results ([1]; additive concentration 10 mM): No Improvement
Results ([1]; additive concentration 25 mM): No Improvement
Compound: [Cl][Cu][Cl] [Copper Chloride]

Notes (Hb stability vs Hb Collection Buffer) [1]: Improved Hb
Results ([2]; additive concentration […]): Improvement
Compound: OC[C@H]1O[C@@](CO)(O[C@H]2O[C@H](CO)[C@@H](O)[C@H](O)[C@H]2O)[C@@H](O)[C@@H]1O [Sucrose]

Results ([1]; additive concentration 0.010%): No Improvement
Results ([1]; additive concentration 0.020%): No Improvement
Results ([1]; additive concentration 0.030%): No Improvement
Results ([1]; additive concentration 0.035%): No Improvement
Results ([1]; additive concentration 0.040%): No Improvement
Results ([1]; additive concentration 0.050%): No Improvement
Results ([1]; additive concentration 0.060%): Assay Interference
Results ([1]; additive concentration 0.070%): Assay Interference
Results ([1]; additive concentration 0.080%): No Improvement
Results ([1]; additive concentration 0.090%): No Improvement
Results ([1]; additive concentration 0.100%): No Improvement
Compound: O=CCCCC=O [Glutaraldehyde Solution]

Results ([2]; additive concentration 0.01 mM): No Improvement
Results ([2]; additive concentration 0.1 mM): No Improvement
Results ([2]; additive concentration 1 mM): No Improvement
Compound: CCCCn1cc[n+](C)c1.[Cl-] [1-Butyl-3-methylimidazoium Chloride]

Results ([2]; Additive Concentration 0.10%): No Improvement
Results ([2]; Additive Concentration 0.50%): No Improvement
Results ([2]; Additive Concentration 1%): No Improvement
Compound: CC(O)CO (stereo not shown) [Propylene Glycol]

Results ([2]; additive concentration 1.25 uM): Improvement in % Hb
Results ([2]; additive concentration 5 uM): Improvement in % Hb
Compound: C=CC1=C(C)c2cc3[n-]c(cc4nc(cc5[n-]c(cc1n2)c(C)c5C=C)C(C)=C4CCC(=O)O)c(CCC(=O)O)c3C.[Cl-].[Cr+3] [Protoporphyrin IX Chromium (Vendor 2)]

Results ([2]; additive concentration 25 uM): No Improvement
Results ([2]; additive concentration 250 uM): No Improvement
Results ([2]; additive concentration 500 uM): No Improvement
Results ([2]; additive concentration 5 mM): No Improvement
Results ([2]; additive concentration 50 mM): No Improvement
Results ([2]; additive concentration 100 mM): No Improvement
Compound: NC(N)=O [Urea]

Results ([2]; additive concentration 72 uM): No Improvement
Results ([2]; additive concentration 720 uM): No Improvement
Compound: OC[C@H]1OC(O)[C@H](O)[C@@H](O)[C@@H]1O (stereo partly shown) [Glucose]

Results ([2]; additive concentration 0.0003%): Improvement in % Hb
Compound: C=CC1=C(C)c2cc3[n-]c(cc4[n-]c(cc5nc(cc1n2)C(C)=C5C=C)c(C)c4CCC(=O)O)c(CCC(=O)O)c3C.[Cl-].[Fe+3] [Hemin (DMSO)]

From patent US20240402196A1 (Exact Sciences Corporation, priority 2018, published 2024)
